Several values for one entry are separate records, joined by “and”; a condition that tells them apart may be missing. Equal values may be shown once.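 Step 1: Grow cells in 96-well plates. Step 2: Expose to compound for 48 hours at 5 concentrations. Step 3: Interpolate endpoints linearly; if unreached, use highest concentration. Abbreviation: GI50, concentration required for 50% inhibition of growth. TGI is the concentration that stops growth completely.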 Non-standard residues stand in square brackets, D forms with d. Residues, ends and D or L forms follow the SMILES beside them. *: point of attachment. ONb = O=[N+]([O-])c1ccc(CO*)cc1; AllylGly = C=CC[CH](N)C(=O)O; Boc = CC(C)(C)OC(=O)*
Assays:
PC-3 prostate = experiment: NCI tumour cell line growth inhibition, 48 h
T-47D breast = experiment: NCI tumour cell line growth inhibition, 48 h

SMILES	GI50 (PC-3 prostate)	TGI (PC-3 prostate)	GI50 (T-47D breast)	TGI (T-47D breast)
COc1cc(C2CC(c3ccc(C)cc3)=NN2C=O)ccc1Oc1ccnc2cc(Cl)ccc12 (stereo not drawn)	> 50 µM	> 50 µM	2.9 µM	23.5 µM
O=C(CCCCCCSc1nc(-c2ccccc2)cc(-c2ccc(Cl)cc2)n1)NO	1.98 µM	10.5 µM	1.62 µM	4.98 µM
Cc1ccc(CNc2c3ccccc3nc3ccccc23)cc1	1.87 µM	7.11 µM	1.87 µM	4.83 µM
CS(=O)(=O)CCNCc1nc(-c2ccc3ncnc(Nc4ccc(F)c(Cl)c4)c3c2)cs1	14.7 µM	> 25 µM	8.57 µM	> 25 µM
Cc1c2c(nn1-c1ccc(S(=O)(=O)NC(=S)Nc3ccccc3)cc1)-c1ccccc1CC2	39.9 µM	> 50 µM	> 50 µM	> 50 µM
Cc1ccc(-[n+]2c3cc(N)c(C)cc3nc3cc(C)c(Nc4ccccc4)cc32)cc1	0.174 µM	1.77 µM	0.0886 µM	1.02 µM
O=C(NNc1nc(Cl)nc(N2CCN(C(c3ccccc3)c3ccccc3)CC2)n1)c1ccccc1	1.83 µM	3.81 µM	3.41 µM	> 100 µM
COc1ccc2nc(N/N=C(\C)c3ccccn3)cc(C)c2c1	0.433 µM	5.68 µM	0.0766 µM	1.61 µM
COc1cc2c(cc1OC)C(=O)/C(=C/c1cccc(OCC(=O)c3ccccc3)c1)C2	5.11 µM	> 100 µM	4.34 µM	68.8 µM
CCC[CH2][Sn-]([CH2]CCC)([CH2]CCC)[O]c1cc(Cl)c(Cl)cc1Cl	0.207 µM	0.458 µM	0.137 µM	0.35 µM
O=C1NCc2ccc3c(-c4cccc(Cl)c4)c[nH]c3c21	0.281 µM	> 50 µM	0.277 µM	> 50 µM
COc1cc(C2C=C(c3cccc(NC(C)=O)c3)Nc3ncnn32)cc(OC)c1OC (stereo not drawn)	1.13 µM	> 100 µM		
CCOC(=O)c1ccc(NC(=O)N2CC(C)OC(C)C2)cc1 (stereo not drawn)	> 100 µM	> 100 µM	> 100 µM	> 100 µM
CNC(=O)c1cc(OC2CCC(NC(=O)Nc3ccc(Cl)c(C(F)(F)F)c3)CC2)ccn1 (stereo not drawn)	3.51 µM	> 44.6 µM	5.31 µM	39.4 µM
COc1ccc(-c2nn3ncccc3c2-c2ccnc(Nc3ccc(Cl)c(C(F)(F)F)c3)n2)cc1	6.2 µM	> 25 µM	7.21 µM	> 25 µM
C=C1C(=O)O[C@H]2[C@H]1CC/C(COC(=O)c1cc3cc(F)ccc3[nH]1)=C\CC[C@@]1(C)O[C@@H]21	1.7 µM	3.44 µM		
ClCc1cccc(Cn2cnc3c(Cl)ncnc32)c1	4.18 µM	18.3 µM	3.02 µM	12.3 µM
CC(=O)Nc1ccc2c(c1)c(C1=C(c3cn(C)c4ccccc34)C(=O)NC1=O)cn2C	0.754 µM	22.1 µM	1.66 µM	> 25 µM
CNc1ccc2nc3ccc(=[N+](C)C)cc-3sc2c1	0.41 µM and 0.203 µM	11.6 µM and 2.87 µM	1.86 µM and 0.489 µM	8.9 µM and 12.5 µM
N=C1C(c2nc(-c3ccc(Br)cc3)cs2)=C(O)CN1Cc1cccnc1	44.3 µM	> 100 µM	4.89 µM	56.1 µM
COc1nc(N(C)O)nc(N(C)O)n1	3.1 µM	> 100 µM	4.51 µM	> 100 µM
C=C1CC2(OC1=O)C(=O)N(CCCCCCCN1C(=O)C3(CC(=C)C(=O)O3)c3ccccc31)c1ccccc12 (stereo not drawn)	1.53 µM	6.58 µM	1.17 µM	5.02 µM
CCN(CC)CCOc1nc2ccc(OC)cc2c2c1-c1ccc(OC)cc1C2=O	1.3 µM	2.91 µM	11 µM	26.3 µM
COc1ccc(Cl)cc1Nc1nc(C(F)(F)F)ccc1C(=O)N/N=C/c1c(Cl)cccc1Cl			4.41 µM	> 100 µM
C=CCC(NC(=O)OC(C)(C)C)C(=O)NC(CCC(=O)OCc1ccc([N+](=O)[O-])cc1)C(N)=O (stereo not drawn) (Boc-[AllylGly]-Glu(ONb)-NH2; configuration not given here)			77 µg/mL	
COC(=O)N[C@H]1CCc2c(Br)c(OC)c(OC)c(OC)c2-c2ccc(SC)c(=O)cc21	< 0.01 µM	32.6 µM		
COc1ccc2c(c1)/C(=C\c1c(C)nc3sc(C)cn13)C(=O)N2C	6.9 µM	62.4 µM	1.78 µM	5.35 µM
COc1cc2c3c(n(C)c(=O)c2cc1OC)-c1cc2c(cc1/C3=C\CCCCCN)OCO2			5.61 µM	> 55.5 µM
Cc1cc(-c2ncc(CC(=O)Nc3ccc(-c4cnccn4)cn3)cc2C)ccn1	28.2 µM	> 100 µM		
O=C(Oc1ccc(Cl)cc1Cl)c1ccccc1Nc1ccnc(C(F)(F)F)c1	8.24 µM	25.5 µM		
